Measurements as given in publication PMC6562543 (Marine Drugs, 2019).

Tested on: CaV2.2 channels (α1B, α2δ1, and β3)
Assay type: cell-based, rat

## CSCC[C@@H]1NC(=O)[C@H](CC(C)C)NC(=O)[C@H](CCCNC(=N)N)NC(=O)[C@H](CO)NC(=O)[C@@H]2CSSC[C@@H]3NC(=O)[C@H](CO)NC(=O)CNC(=O)[C@H]([C@@H](C)O)NC(=O)[C@H](CSSC[C@H](N)C(=O)N[C@@H](CCCCN)C(=O)NCC(=O)N[C@@H](CCCCN)C(=O)NCC(=O)N[C@@H](C)C(=O)N[C@@H](CCCCN)C(=O)N2)NC(=O)[C@H](CSSC[C@@H](C(N)=O)NC(=O)[C@H](CCCCN)NC(=O)CNC(=O)[C@H](CO)NC(=O)[C@H](CCCNC(=N)N)NC3=O)NC(=O)[C@H](CC(=O)O)NC(=O)[C@H](Cc2ccc(O)cc2)NC1=O [MVIIA, ω-Conotoxin MVIIA]
  Hill slope: 1.296
2 µM
  inhibitory effect on CaV2.2 channel: more than 90%
SEM
  reduction of ICa amplitude: 98.24 ± 0.708%
